Biological target: T1, human microsomal FMO1 (Homo sapiens, UniProt Q01740)
T1 sequence (Q01740 2-532): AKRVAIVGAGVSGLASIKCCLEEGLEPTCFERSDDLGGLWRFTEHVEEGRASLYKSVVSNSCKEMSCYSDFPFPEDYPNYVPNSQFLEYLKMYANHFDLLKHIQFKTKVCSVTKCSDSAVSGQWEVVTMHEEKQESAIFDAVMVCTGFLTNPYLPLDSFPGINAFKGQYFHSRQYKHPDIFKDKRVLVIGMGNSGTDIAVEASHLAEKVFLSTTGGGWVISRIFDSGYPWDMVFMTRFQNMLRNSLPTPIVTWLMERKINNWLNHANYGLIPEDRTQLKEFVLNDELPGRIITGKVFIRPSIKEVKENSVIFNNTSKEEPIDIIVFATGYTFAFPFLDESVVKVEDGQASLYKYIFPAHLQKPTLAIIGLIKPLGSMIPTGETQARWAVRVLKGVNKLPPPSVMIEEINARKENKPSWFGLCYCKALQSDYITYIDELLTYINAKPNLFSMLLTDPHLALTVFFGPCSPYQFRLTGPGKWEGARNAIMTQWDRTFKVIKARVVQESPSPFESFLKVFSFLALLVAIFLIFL
Assay: absorption spectrum
Assay type: biochemical
Details: PBS; microsomal FMO1 as positive control

`Cc1cc2nc3c(=O)[nH]c(=O)nc-3n(C[C@H](O)[C@H](O)[C@H](O)COP(=O)(O)OP(=O)(O)OC[C@H]3O[C@@H](n4cnc5c(N)ncnc54)[C@H](O)[C@@H]3O)c2cc1C` [FAD] was tested, and the absorption spectrum was “FAD bound to human microsomal FMO1 (orange)”.
